Results from US10487146B2, “Oxidized LDL as a biomarker for neurological complications of pregnancy” (The University of Vermont and State Agricultural College, priority 2012, dated 2019).
“Also recorded” adds a separate entry of the source.

Tested on: cerebral vein of Galen from NonP rats
Assay: BBB permeability (hydraulic conductivity, Lp) in isolated cerebral veins perfused with human plasma
Parameters: species or system rat
Description: BBB permeability measurements. The first set of experiments was performed to determine the effects of circulating factors in plasma from EPE and LPE women on the BBB permeability compared to NP women and NonP women. We measured Lp, the critical transport parameter that relates water flux to hydrostatic pressure, in isolated cerebral veins from nonpregnant female rats after perfusing with plasma from the 4 groups of women, as described previously (52). This method of measuring BBB permeability was specifically developed to have a direct measure of water permeability and has been successfully used in several previous studies (13, 52-54).
The vein of Galen was used for all permeability experiments as representation of the BBB because this vein has BBB properties and is where BBB disruption occurs first during acute hypertension (55). […] After this incubation period with plasma, intravascular pressure was increased to 25±0.1 mmHg and the drop in pressure due to transvascular filtration of water out of the vessel in response to hydrostatic pressure was measured for 40 minutes. […] After flux was determined, transvascular filtration per surface area (Jv/S) and Lp were calculated by normalizing flux to the surface area and oncotic pressure of the plasma perfusate that was determined by a commercially available oncometer. […]

## C[n+]1ccc(-c2c3nc(c(-c4cc[n+](C)cc4)c4ccc([n-]4)c(-c4cc[n+](C)cc4)c4nc(c(-c5cc[n+](C)cc5)c5ccc2[n-]5)C=C4)C=C3)cc1.[Cl-].[Cl-].[Cl-].[Cl-].[Cl-].[Fe+3] [FeTMPyP, Fe(III)tetrakis (1-methyl-4-pyridyl) porphyrin pentachlorideporphyrin pentachloride]
EPE plasma plus 50 μM FeTMPyP
  effect on BBB permeability (Lp at 36 minutes) induced by plasma from EPE women: significantly inhibited BBB permeability; also recorded: inhibited the BBB permeability induced by plasma from EPE women
NonP plasma plus 3.5 μg/ml oxLDL and 50 μM FeTMPyP
  effect on BBB permeability (Lp) induced by exogenous oxLDL: inhibited the BBB permeability induced by 3.5 μg/ml exogenous oxLDL
